Test results from patent US20230203043A1, “NOVEL IMIDAZOPYRAZINE DERIVATIVES” (Hoffmann-La Roche Inc., priority 2020, published 2023).
Structures can show the parent of a compound that is named as a salt.

test system: Acinetobacter baumannii ATCC17961; test: Antimicrobial susceptibility testing: 90% growth inhibitory concentration (IC90) determination in Iso-Sensitest broth, OD600 growth; assay type: cell-based; conditions: Acinetobacter baumannii, ATCC17961, 16 h, read-out: A. baumannii ATCC 17961 IC90 (uM), strain ATCC 17961, OD600 growth over 16 h
Outline: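 Each strain, at about 5×10^(5) CFU/ml, was incubated with twofold dilutions of compound at 35±2° C for 16 h, and IC90 was calculated from kinetic optical density measured at 600 nm during logarithmic growth.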

Row | Compound | IC90 [µM]
1 | N#CCCn1cc(-c2cnc3c(Nc4ccc(C(=O)N5CCN(C(=O)CCN)CC5)c(Cl)c4)nccn23)c(C(F)(F)F)n1 [Example 256, 3-[4-[8-[4-[4-(3-aminopropanoyl)piperazine-1-carbonyl]-3-chloroanilino]imidazo[1,2-a]pyrazin-3-yl]-3-(trifluoromethyl)pyrazol-1-yl]propanenitrile formate] | 0.358
2 | N#CCCn1cc(-c2cnc3c(Nc4ccc(C(=O)N5CCN(C(=O)N[C@H]6CCNC6)CC5)c(Cl)c4)nccn23)c(C(F)(F)F)n1 [Example 259, 4-[2-chloro-4-[[3-[1-(2-cyanoethyl)-3-(trifluoromethyl)pyrazol-4-yl]imidazo[1,2-a]pyrazin-8-yl]amino]benzoyl]-N-[(3S)-pyrrolidin-3-yl]piperazine-1-carboxamide formate] | 0.463
3 | CCc1cc(Nc2nccn3c(-c4cn(CC#N)nc4C(F)(F)F)cnc23)ccc1C(=O)N1CCNCC1 [Example 260, 2-[4-[8-[3-ethyl-4-(piperazine-1-carbonyl)anilino]imidazo[1,2-a]pyrazin-3-yl]-3-(trifluoromethyl)pyrazol-1-yl]acetonitrile formate] | 0.519
4 | NC1CN(C(=O)N2CCN(C(=O)c3ccc(Nc4nccn5c(-c6c[nH]nc6C(F)(F)F)cnc45)cc3Cl)CC2)C1 [Example 266, [4-(3-aminoazetidine-1-carbonyl)piperazin-1-yl]-[2-chloro-4-[[3-[3-(trifluoromethyl)-1H-pyrazol-4-yl]imidazo[1,2-a]pyrazin-8-yl]amino]phenyl] methanone formate] | 0.282
5 | C=CCn1cc(-c2cnc3c(Nc4ccc(C(=O)NCCOCCN)c(CC)c4)nccn23)c(C(F)(F)F)n1 [Example 272, N-[2-(2-aminoethoxy)ethyl]-2-ethyl-4-[[3-[1-prop-2-enyl-3-(trifluoromethyl)pyrazol-4-yl]imidazo[1,2-a]pyrazin-8-yl]amino]benzamide formate] | 0.085
6 | CCc1cc(Nc2nccn3c(-c4cn(C5CCC5)nc4C(F)(F)F)cnc23)ccc1C(=O)NCCOCCN [Example 273, N-[2-(2-aminoethoxy)ethyl]-4-[[3-[1-cyclobutyl-3-(trifluoromethyl)pyrazol-4-yl]imidazo[1,2-a]pyrazin-8-yl]amino]-2-ethylbenzamide formate] | 0.087

same assay, conditions: Acinetobacter baumannii, ATCC17961, 16 h, strain ATCC 17961, OD600 growth over 16 h, read-out: A. baumannii ATCC 17961 IC90

Row | Compound | IC90 [µM]
7 | NCCOCCNC(=O)c1ccc(Nc2nccn3c(-c4cn(CCF)nc4C(F)(F)F)cnc23)cc1Cl [Example 250, N-[2-(2-aminoethoxy)ethyl]-2-chloro-4-[[3-[1-(2-fluoroethyl)-3-(trifluoromethyl)pyrazol-4-yl]imidazo[1,2-a]pyrazin-8-yl]amino]benzamide] | 0.084
8 | CCc1cc(Nc2nccn3c(-c4c[nH]nc4C(F)(F)F)cnc23)ccc1C(=O)NCCC1(N)CC1 [Example 263, N-[2-(1-aminocyclopropyl)ethyl]-2-ethyl-4-[[3-[3-(trifluoromethyl)-1H-pyrazol-4-yl]imidazo[1,2-a]pyrazin-8-yl]amino]benzamide] | 2.43
9 | CCc1cc(Nc2nccn3c(-c4cn(CC(C)CO)nc4C(F)(F)F)cnc23)ccc1C(=O)NCCOCCN (centres unmarked) [Example 267, N-[2-(2-aminoethoxy)ethyl]-2-ethyl-4-[[3-[1-(3-hydroxy-2-methylpropyl)-3-(trifluoromethyl)pyrazol-4-yl]imidazo[1,2-a]pyrazin-8-yl]amino]benzamide] | 0.225
10 | CCc1cc(Nc2nccn3c(-c4cn(CCN5CCCC5)nc4C(F)(F)F)cnc23)ccc1C(=O)NCCOCCN [Example 269, N-[2-(2-aminoethoxy)ethyl]-2-ethyl-4-[[3-[1-(2-pyrrolidin-1-ylethyl)-3-(trifluoromethyl)pyrazol-4-yl]imidazo[1,2-a]pyrazin-8-yl]amino]benzamide] | 1.39
11 | CCc1cc(Nc2nccn3c(-c4c[nH]nc4C(F)(F)F)cnc23)ccc1C(=O)NCCCNCCCCNCCCN [Example 270, N-[3-[4-(3-aminopropylamino)butylamino]propyl]-2-ethyl-4-[[3-[3-(trifluoromethyl)-1H-pyrazol-4-yl]imidazo[1,2-a]pyrazin-8-yl]amino]benzamide] | 2.66

Continued, values first:

Row | IC90 [µM] | Compound
12 | 0.116 | O=C(c1ccc(Nc2nccn3c(-c4c[nH]nc4C(F)(F)F)cnc23)cc1Cl)N1CCN(C(=O)[C@]2(O)CCCNC2)CC1 [Example 247, [2-chloro-4-[[3-[3-(trifluoromethyl)-1H-pyrazol-4-yl]imidazo[1,2-a]pyrazin-8-yl]amino]phenyl]-[4-[(3S)-3-hydroxypiperidine-3-carbonyl]piperazin-1-yl]methanone]
13 | 0.311 | O=C(c1ccc(Nc2nccn3c(-c4c[nH]nc4C(F)(F)F)cnc23)cc1Cl)N1CCN(C(=O)[C@@]2(O)CCCNC2)CC1 [Example 248, [2-chloro-4-[[3-[3-(trifluoromethyl)-1H-pyrazol-4-yl]imidazo[1,2-a]pyrazin-8-yl]amino]phenyl]-[4-[(3R)-3-hydroxypiperidine-3-carbonyl]piperazin-1-yl]methanone]
14 | 0.047 | C#CCn1cc(-c2cnc3c(Nc4ccc(C(=O)NCCOCCN)c(Cl)c4)nccn23)c(C(F)(F)F)n1 [Example 249, N-[2-(2-aminoethoxy)ethyl]-2-chloro-4-[[3-[1-prop-2-ynyl-3-(trifluoromethyl)pyrazol-4-yl]imidazo[1,2-a]pyrazin-8-yl]amino]benzamide]
15 | 0.136 | CCc1cc(Nc2nccn3c(-c4cn(CC#N)nc4C(F)(F)F)cnc23)ccc1C(=O)NCC#N [Example 251, N-(cyanomethyl)-4-[[3-[1-(cyanomethyl)-3-(trifluoromethyl)pyrazol-4-yl]imidazo[1,2-a]pyrazin-8-yl]amino]-2-ethylbenzamide]
16 | 0.198 | Cc1cc(Nc2nccn3c(-c4cn(CCF)nc4C(F)(F)F)cnc23)ccc1C(=O)NCCOCCN [Example 253, N-[2-(2-aminoethoxy)ethyl]-4-[[3-[1-(2-fluoroethyl)-3-(trifluoromethyl)pyrazol-4-yl]imidazo[1,2-a]pyrazin-8-yl]amino]-2-methylbenzamide]
17 | 0.222 | Cc1cc(Nc2nccn3c(-c4cn(CC(F)F)nc4C(F)(F)F)cnc23)ccc1C(=O)NCCOCCN [Example 254, N-[2-(2-aminoethoxy)ethyl]-4-[[3-[1-(2,2-difluoroethyl)-3-(trifluoromethyl)pyrazol-4-yl]imidazo[1,2-a]pyrazin-8-yl]amino]-2-methylbenzamide]
18 | 0.37 | N#CCn1cc(-c2cnc3c(Nc4ccc(C(=O)NCCOCCN)c(Cl)c4)nccn23)c(C(F)(F)F)n1 [Example 257, N-[2-(2-aminoethoxy)ethyl]-2-chloro-4-[[3-[1-(cyanomethyl)-3-(trifluoromethyl)pyrazol-4-yl]imidazo[1,2-a]pyrazin-8-yl]amino]benzamide]
19 | 1.1 | Cc1cc(Nc2nccn3c(-c4cn(CC#N)nc4C(F)(F)F)cnc23)ccc1C(=O)NCCOCCN [Example 262, N-[2-(2-aminoethoxy)ethyl]-4-[[3-[1-(cyanomethyl)-3-(trifluoromethyl)pyrazol-4-yl]imidazo[1,2-a]pyrazin-8-yl]amino]-2-methylbenzamide]
20 | 0.346 | CCc1cc(Nc2nccn3c(-c4cn(CC(O)CC)nc4C(F)(F)F)cnc23)ccc1C(=O)NCCOCCN (centres unmarked) [Example 268, N-[2-(2-aminoethoxy)ethyl]-2-ethyl-4-[[3-[1-(2-hydroxybutyl)-3-(trifluoromethyl)pyrazol-4-yl]imidazo[1,2-a]pyrazin-8-yl]amino]benzamide]
21 | 3.07 | CCc1cc(Nc2nccn3c(-c4cn(CC(=O)O)nc4C(F)(F)F)cnc23)ccc1C(=O)NCCOCCN [Example 271, 2-[4-[8-[4-[2-(2-aminoethoxy)ethylcarbamoyl]-3-ethylanilino]imidazo [1,2-a]pyrazin-3-yl]-3-(trifluoromethyl)pyrazol-1-yl]acetic acid]

same assay, conditions: strain ATCC 17961, OD600 growth over 16 h, read-out: A. baumannii ATCC 17961 IC90

Row | Compound | IC90 [µM]
22 | N#CCCn1cc(-c2cnc3c(Nc4ccc(C(=O)N5CCN(C(=O)NC6CNC6)CC5)c(Cl)c4)nccn23)c(C(F)(F)F)n1 [Example 246, N-(azetidin-3-yl)-4-[2-chloro-4-[[3-[1-(2-cyanoethyl)-3-(trifluoromethyl)pyrazol-4-yl]imidazo[1,2-a]pyrazin-8-yl]amino]benzoyl] piperazine-1-carboxamide formate] | 0.533
23 | NCCOCCNC(=O)c1ccc(Nc2nccn3c(-c4cn(CC(F)F)nc4C(F)(F)F)cnc23)cc1Cl [Example 252, N-[2-(2-aminoethoxy)ethyl]-2-chloro-4-[[3-[1-(2,2-difluoroethyl)-3-(trifluoromethyl)pyrazol-4-yl]imidazo[1,2-a]pyrazin-8-yl]amino] benzamide] | 0.169
24 | N#CCn1cc(-c2cnc3c(Nc4ccc(C(=O)N5CCN(C(=O)NCCN)CC5)c(Cl)c4)nccn23)c(C(F)(F)F)n1 [Example 258, N-(2-aminoethyl)-4-[2-chloro-4-[[3-[1-(2-cyanomethyl)-3-(trifluoromethyl)pyrazol-4-yl]imidazo[1,2-a]pyrazin-8-yl]amino]benzoyl] piperazine-1-carboxamide formate] | 0.398
25 | N#CCn1cc(-c2cnc3c(Nc4ccc(C(=O)N5CCN(C(=O)NCCN)CC5)c(Cl)c4)nccn23)c(C(F)(F)F)n1 [Example 264, N-(2-aminoethyl)-4-[2-chloro-4-[[3-[1-(cyanomethyl)-3-(trifluoromethyl)pyrazol-4-yl]imidazo[1,2-a]pyrazin-8-yl]amino]benzoyl] piperazine-1-carboxamide formate] | 0.451
26 | NC1CC(NC(=O)N2CCN(C(=O)c3ccc(Nc4nccn5c(-c6c[nH]nc6C(F)(F)F)cnc45)cc3Cl)CC2)C1 (centres unmarked) [Example 265, N-(3-aminocyclobutyl)-4-[2-chloro-4-[[3-[3-(trifluoromethyl)-1H-pyrazol-4-yl]imidazo[1,2-a]pyrazin-8-yl]amino]benzoyl] piperazine-1-carboxamide formate] | 0.231
